The compounds below were run against Neprilysin (Homo sapiens, UniProt P08473) (assay: Enzyme NEP Inhibition Assay).
Description: The assays were performed in 384-well white opaque plates at 37° C. using the fluorogenic peptide substrates at a concentration of 10 μM in Assay Buffer (NEP: 50 mM HEPES, pH 7.5, 100 mM NaCl, 0.01% polyethylene glycol sorbitan monolaurate (Tween-20), 10 μM ZnSO4; ACE: 50 mM HEPES, pH 7.5, 100 mM NaCl, 0.01% Tween-20, 1 μM ZnSO4). […] Test compounds were added to the enzymes and incubated for 30 minute at 37° C. prior to initiating the reaction by the addition of substrate.

Row | SMILES | IC50 | Ki
1 | C[C@H](C[C@@H](Cc1ccc(-c2ccccc2)cc1)NC(=O)CCCC(=O)O)C(=O)O [US10123984, Compound 21e] | 90 nM | 
2 | O=C(N[C@H](Cc1ccc(-c2cccc(Cl)c2)cc1)C[C@@H](O)C(=O)O)C(=O)OCCOc1ccccc1 [US10123984, Example 2U] |  | < 1 nM
3 | C[C@H](C[C@@H](Cc1ccc(-c2ccccc2)cc1)NC(=O)CCCCC(=O)O)C(=O)O [US10123984, Compound 21f] | 324 nM | 
4 | CC(C)COC(=O)C(=O)N[C@H](Cc1ccc(-c2cccc(Cl)c2)cc1)C[C@@H](O)C(=O)O [US10123984, Example 2H] |  | < 1 nM
5 | C[C@H](CC(Cc1ccc(-c2ccccc2)cc1)NC(=O)CC(=O)O)C(=O)O (some centres undefined) [US10123984, Compound 21g] | 92 nM | 
6 | O=C(O)C(=O)N[C@H](Cc1ccc(-c2cccc(Cl)c2)cc1)C[C@@H](O)C(=O)O [US10123984, Example 2A] |  | < 1 nM
7 | CCOCCCOC(=O)C(=O)N[C@H](Cc1ccc(-c2cccc(Cl)c2)cc1)C[C@@H](O)C(=O)O [US10123984, Example 2V] |  | < 1 nM
8 | COCCOC(=O)C(=O)N[C@H](Cc1ccc(-c2cccc(Cl)c2)cc1)C[C@@H](O)C(=O)O [US10123984, Example 2T] |  | < 1 nM
9 | CCOC(=O)C(=O)N[C@H](Cc1ccc(-c2cccc(Cl)c2)cc1)C[C@@H](O)C(=O)O [US10123984, Example 2F] |  | < 1 nM
